Blank lines part the entries; values can stand above or below the compound they belong to.
Experiment: Henry solubility constant Hcp at 298.15 K (mol/(m3 Pa))
Conditions: reference: Wright et al. (1992)

Compound: ClCC(Cl)(Cl)Cl [1,1,1,2-tetrachloroethane]
Henry solubility constant Hcp: 0.004

Compound: CC(Cl)(Cl)Cl [1,1,1-trichloroethane]
Henry solubility constant Hcp: 0.0006

Compound: ClC(Cl)C(Cl)Cl [1,1,2,2-tetrachloroethane]
Henry solubility constant Hcp: 0.022

Compound: ClCC(Cl)Cl [1,1,2-trichloroethane]
Henry solubility constant Hcp: 0.011

Compound: CC(Cl)CCl (stereo unspecified) [1,2-dichloropropane]
Henry solubility constant Hcp: 0.0036

Compound: ClC=CCCl [1,3-dichloropropene]
Henry solubility constant Hcp: 0.0064

Compound: BrCBr [dibromomethane]
Henry solubility constant Hcp: 0.011

Henry solubility constant Hcp: 0.0039
Compound: ClCCl [dichloromethane]

Compound: ClC(Cl)(Cl)Cl [tetrachloromethane]
Henry solubility constant Hcp: 0.00029

Compound: BrC(Br)Br [tribromomethane]
Henry solubility constant Hcp: 0.024

Compound: ClC=C(Cl)Cl [trichloroethene]
Henry solubility constant Hcp: 0.0011
